≈ marks a conversion by molar mass, not a printed value. Bounds are passed on as bounds.

The values below come from ChEMBL document CHEMBL1133694, “Hydroxamic acid derivatives as potent peptide deformylase inhibitors and antibacterial agents” (J Med Chem, 2000).

Assay [1] has as its target T1, Endothelin-converting enzyme 1 (Homo sapiens, UniProt P42892).
T1 sequence (P42892 whole entry): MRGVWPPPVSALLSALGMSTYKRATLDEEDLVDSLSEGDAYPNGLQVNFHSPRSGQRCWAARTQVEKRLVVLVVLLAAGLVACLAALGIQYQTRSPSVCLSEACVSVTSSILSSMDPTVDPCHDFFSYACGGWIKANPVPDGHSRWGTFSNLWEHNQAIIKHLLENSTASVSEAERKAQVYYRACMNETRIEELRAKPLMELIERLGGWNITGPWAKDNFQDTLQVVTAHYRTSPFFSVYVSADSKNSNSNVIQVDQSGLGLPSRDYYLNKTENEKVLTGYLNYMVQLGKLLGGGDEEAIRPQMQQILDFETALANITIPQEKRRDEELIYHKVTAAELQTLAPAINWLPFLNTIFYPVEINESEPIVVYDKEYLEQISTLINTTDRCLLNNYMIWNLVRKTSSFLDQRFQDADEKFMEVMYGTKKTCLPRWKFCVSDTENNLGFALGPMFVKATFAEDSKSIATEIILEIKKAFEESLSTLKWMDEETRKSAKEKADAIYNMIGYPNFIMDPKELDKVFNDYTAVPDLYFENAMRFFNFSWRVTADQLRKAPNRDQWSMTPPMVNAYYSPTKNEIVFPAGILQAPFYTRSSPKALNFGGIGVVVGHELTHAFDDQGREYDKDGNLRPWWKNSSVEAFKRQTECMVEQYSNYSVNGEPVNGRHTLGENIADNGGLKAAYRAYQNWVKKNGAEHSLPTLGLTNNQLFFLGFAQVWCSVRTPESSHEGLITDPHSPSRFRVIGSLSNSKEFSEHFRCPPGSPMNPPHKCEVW
Briefly: Inhibitory activity against Endothelin-converting enzyme 1.

Assay [2] relates to Mycoplasmoides pneumoniae. Briefly: In vitro antibacterial activity against Mycoplasma pneumoniae ATCC 29342. It is filed as functional.
Assay [3] can be described thus: Inhibitory activity against PDF isolated from Bacillus subtilis.
The next assay concerns the target T2, Interstitial collagenase (Homo sapiens, UniProt P03956).
T2 sequence (P03956 whole entry): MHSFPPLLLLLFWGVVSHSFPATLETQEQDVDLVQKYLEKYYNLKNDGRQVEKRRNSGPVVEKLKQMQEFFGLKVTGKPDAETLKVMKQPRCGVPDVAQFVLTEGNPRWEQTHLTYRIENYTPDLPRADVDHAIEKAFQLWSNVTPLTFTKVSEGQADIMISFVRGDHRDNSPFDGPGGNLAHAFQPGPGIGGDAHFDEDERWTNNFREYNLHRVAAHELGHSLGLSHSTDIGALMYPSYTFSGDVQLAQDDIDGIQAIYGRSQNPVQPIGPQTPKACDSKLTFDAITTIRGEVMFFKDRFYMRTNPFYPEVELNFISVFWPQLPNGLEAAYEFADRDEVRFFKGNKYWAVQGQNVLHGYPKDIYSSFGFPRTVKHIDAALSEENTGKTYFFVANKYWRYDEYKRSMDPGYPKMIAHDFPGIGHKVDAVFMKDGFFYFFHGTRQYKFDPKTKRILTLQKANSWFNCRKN
Briefly: Inhibition of Matrix metalloprotease-1.

For a further assay, the target named is Collagenase 3 (Homo sapiens, UniProt P45452). Briefly: Inhibition of Matrix metalloprotease-13.
For assay [4], the system named is Escherichia coli. Briefly: In vitro antibacterial activity against isolated Escherichia coli DC2. It is filed as functional.
The test system of a further assay is Bacillus subtilis. Briefly: In vitro antibacterial activity against Bacillus subtilis ATCC 585969. Type of assay: functional.
Another assay concerns Enterococcus faecium. Briefly: In vitro antibacterial activity against Enterococcus faecium vanA E25_1. Type of assay: functional.
Assay [5] deals with T3, Neprilysin (Rattus norvegicus, UniProt P07861).
T3 sequence (P07861 whole entry): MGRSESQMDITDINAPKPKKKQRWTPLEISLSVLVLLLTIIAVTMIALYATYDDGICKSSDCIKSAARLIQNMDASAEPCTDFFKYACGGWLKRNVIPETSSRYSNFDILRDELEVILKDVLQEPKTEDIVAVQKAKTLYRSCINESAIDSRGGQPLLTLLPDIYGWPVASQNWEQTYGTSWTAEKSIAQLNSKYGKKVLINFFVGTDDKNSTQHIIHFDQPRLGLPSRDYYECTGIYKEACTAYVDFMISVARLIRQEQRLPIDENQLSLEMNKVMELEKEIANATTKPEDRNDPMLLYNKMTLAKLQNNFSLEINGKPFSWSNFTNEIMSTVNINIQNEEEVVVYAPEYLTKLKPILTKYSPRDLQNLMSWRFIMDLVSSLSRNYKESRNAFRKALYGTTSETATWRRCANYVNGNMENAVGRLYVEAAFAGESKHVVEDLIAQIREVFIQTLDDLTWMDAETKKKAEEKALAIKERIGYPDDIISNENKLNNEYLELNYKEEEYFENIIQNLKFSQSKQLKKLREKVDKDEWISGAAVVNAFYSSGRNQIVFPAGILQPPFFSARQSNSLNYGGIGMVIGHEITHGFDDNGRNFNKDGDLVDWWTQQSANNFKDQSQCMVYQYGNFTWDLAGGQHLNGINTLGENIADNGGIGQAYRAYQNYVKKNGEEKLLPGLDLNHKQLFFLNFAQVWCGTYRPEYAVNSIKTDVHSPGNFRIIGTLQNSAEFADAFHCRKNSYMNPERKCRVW
Briefly: Inhibitory activity against neutral endopeptidase enzyme (NEP).

Assay [6] concerns Streptococcus pneumoniae. Briefly: In vitro antibacterial activity against Streptococcus pneumoniae 1/1 (penicillin resistant). Type of assay: functional.
Another assay relates to Enterococcus faecalis. Briefly: In vitro antibacterial activity against Enterococcus faecalis ATCC 29212. Type of assay: functional.
Assay [7] has as its system peptide deformylase (Streptococcus pneumoniae). Briefly: Inhibitory activity against PDF isolated from Streptococcus pneumoniae.
In a further assay the test system is Chlamydia pneumoniae. Briefly: In vitro antibacterial activity against Chlamydia pneumoniae AR-39. Type of assay: functional.
Assay [8] has as its system Escherichia coli. Briefly: In vitro antibacterial activity against Escherichia coli ATCC 25922. It is filed as functional.
Assay [9] concerns the target Angiotensin-converting enzyme (Homo sapiens, UniProt P12821).
A further assay relates to Moraxella catarrhalis. Briefly: In vitro antibacterial activity against isolated Moraxella catarrhalis RA21. It is filed as functional.
In assay [10] the target is Macrophage metalloelastase (Homo sapiens, UniProt P39900). Briefly: Inhibition of human Matrix metalloprotease-12.
Assay [11] concerns Streptococcus pneumoniae. Briefly: In vitro antibacterial activity against Streptococcus pneumoniae ATCC 49619. Type of assay: functional.
Another assay relates to Pseudomonas aeruginosa. Briefly: In vitro antibacterial activity against Pseudomonas aeruginosa ATCC 27853. It is filed as functional.
For assay [12], the system named is Stenotrophomonas maltophilia. Briefly: In vitro antibacterial activity against Stenotrophomonas maltophilia 1AC739. It is filed as functional.
A further assay deals with Staphylococcus aureus. Briefly: In vitro antibacterial activity against Staphylococcus aureus ATCC 25923. Type of assay: functional.
A further assay has as its system Haemophilus influenzae. Briefly: In vitro antibacterial activity against Haemophilus influenzae 11. It is filed as functional.
In the next assay the target is Matrilysin (Homo sapiens, UniProt P09237). Briefly: Inhibition of matrilysin, Matrix metalloprotease-7.
The target of assay [13] is T3, Neprilysin. Briefly: Inhibitory activity against endopeptidase enzyme (NEP).
The target in the next assay is T4, Peptide deformylase (Escherichia coli, UniProt Q9JN24).
T4 sequence (Q9JN24 whole entry): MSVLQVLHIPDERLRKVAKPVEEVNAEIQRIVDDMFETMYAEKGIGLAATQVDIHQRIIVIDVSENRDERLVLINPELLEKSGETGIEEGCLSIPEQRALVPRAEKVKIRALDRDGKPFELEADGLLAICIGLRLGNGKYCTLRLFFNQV
Briefly: Inhibitory activity against isolated Escherichia coli peptidyl deformylase (PDF) enzyme containing iron.

Sequence of Macrophage metalloelastase (P39900 whole entry): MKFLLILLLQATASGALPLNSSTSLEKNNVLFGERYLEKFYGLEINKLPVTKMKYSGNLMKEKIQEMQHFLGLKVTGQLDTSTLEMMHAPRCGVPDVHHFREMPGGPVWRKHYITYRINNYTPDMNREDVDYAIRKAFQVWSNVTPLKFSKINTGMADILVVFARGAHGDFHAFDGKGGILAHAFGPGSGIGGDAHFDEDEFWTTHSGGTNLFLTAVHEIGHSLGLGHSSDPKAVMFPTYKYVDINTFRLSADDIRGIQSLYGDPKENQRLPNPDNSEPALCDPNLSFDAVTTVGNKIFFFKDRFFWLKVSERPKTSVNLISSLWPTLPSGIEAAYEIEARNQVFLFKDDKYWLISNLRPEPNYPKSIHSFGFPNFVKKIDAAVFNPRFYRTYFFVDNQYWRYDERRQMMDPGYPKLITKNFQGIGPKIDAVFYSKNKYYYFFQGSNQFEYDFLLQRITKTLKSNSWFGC
Sequence of Angiotensin-converting enzyme (P12821 whole entry): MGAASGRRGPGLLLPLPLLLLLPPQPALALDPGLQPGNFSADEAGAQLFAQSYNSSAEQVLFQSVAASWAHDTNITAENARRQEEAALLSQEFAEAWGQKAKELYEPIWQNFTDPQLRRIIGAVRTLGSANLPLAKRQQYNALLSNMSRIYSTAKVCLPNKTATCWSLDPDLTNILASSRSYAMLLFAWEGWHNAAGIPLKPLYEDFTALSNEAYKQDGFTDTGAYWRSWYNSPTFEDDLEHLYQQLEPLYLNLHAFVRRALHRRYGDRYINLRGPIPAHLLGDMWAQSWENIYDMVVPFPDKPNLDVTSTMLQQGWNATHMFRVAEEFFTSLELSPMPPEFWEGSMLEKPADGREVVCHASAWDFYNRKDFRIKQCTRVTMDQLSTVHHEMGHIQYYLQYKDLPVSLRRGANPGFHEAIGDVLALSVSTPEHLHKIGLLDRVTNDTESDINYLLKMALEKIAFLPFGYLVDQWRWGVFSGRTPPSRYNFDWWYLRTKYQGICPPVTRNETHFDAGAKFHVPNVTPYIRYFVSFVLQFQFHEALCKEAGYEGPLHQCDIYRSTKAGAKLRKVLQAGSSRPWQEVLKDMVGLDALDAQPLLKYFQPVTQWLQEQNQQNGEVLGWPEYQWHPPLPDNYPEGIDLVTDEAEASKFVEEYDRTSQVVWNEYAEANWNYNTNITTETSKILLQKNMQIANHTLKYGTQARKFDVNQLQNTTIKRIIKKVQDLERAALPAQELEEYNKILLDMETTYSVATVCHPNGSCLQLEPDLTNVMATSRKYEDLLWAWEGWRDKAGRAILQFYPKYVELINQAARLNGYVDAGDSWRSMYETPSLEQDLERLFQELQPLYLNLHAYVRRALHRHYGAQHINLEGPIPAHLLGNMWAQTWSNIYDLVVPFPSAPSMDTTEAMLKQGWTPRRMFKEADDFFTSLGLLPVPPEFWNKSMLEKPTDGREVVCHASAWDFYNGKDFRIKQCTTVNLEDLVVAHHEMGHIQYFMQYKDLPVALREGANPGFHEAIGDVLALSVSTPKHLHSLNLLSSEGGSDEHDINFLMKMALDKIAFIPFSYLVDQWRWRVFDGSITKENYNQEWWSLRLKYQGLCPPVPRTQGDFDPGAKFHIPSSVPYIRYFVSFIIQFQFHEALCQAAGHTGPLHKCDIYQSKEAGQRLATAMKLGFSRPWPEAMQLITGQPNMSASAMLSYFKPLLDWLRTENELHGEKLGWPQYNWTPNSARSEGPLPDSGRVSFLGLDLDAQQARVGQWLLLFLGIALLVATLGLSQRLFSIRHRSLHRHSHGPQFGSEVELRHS
Sequence of Matrilysin (P09237 whole entry): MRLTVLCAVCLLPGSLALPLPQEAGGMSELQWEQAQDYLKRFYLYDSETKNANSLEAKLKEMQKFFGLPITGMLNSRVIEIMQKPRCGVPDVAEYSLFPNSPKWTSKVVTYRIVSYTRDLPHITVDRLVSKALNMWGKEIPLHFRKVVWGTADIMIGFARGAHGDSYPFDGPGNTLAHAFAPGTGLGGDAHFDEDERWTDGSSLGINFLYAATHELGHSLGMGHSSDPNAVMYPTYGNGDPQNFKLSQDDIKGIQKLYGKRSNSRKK

The IC50 is the concentration at which inhibition is half-maximal. Read a high IC50 as lower potency. `CCCCC(CC(=O)NO)S(=O)(=O)c1ccccc1` (stereo unspecified): the IC50 in assay [1] is > 50000 nM; in assay [3], 96 nM; on Interstitial collagenase it was 110 nM; at Collagenase 3, 22 nM; on Neprilysin [5], 18000 nM; in [7], 340 nM. Besides, the IC50 stood at 81000 nM in assay [9] and 12 nM in assay [10]. For the same compound, the MIC was 1 µg/mL (≈ 3.5 µM) in assay [2]; 8 µg/mL (≈ 28 µM) with Escherichia coli [4]; 1 µg/mL (≈ 3.5 µM) in the assay on Bacillus subtilis; > 128 µg/mL against Enterococcus faecium; 128 µg/mL (≈ 449 µM) against Streptococcus pneumoniae [6]; > 128 µg/mL against Enterococcus faecalis. In addition, the MIC against Chlamydia pneumoniae is 0.5 µg/mL (≈ 1.75 µM); in the assay on Escherichia coli [8], 128 µg/mL (≈ 449 µM); with Moraxella catarrhalis it was < 0.25 µg/mL; in the assay with Streptococcus pneumoniae [11], 128 µg/mL (≈ 449 µM); with Pseudomonas aeruginosa, > 128 µg/mL; in assay [12] it was 4 µg/mL (≈ 14 µM). For the same compound, the MIC was 256 µg/mL (≈ 897 µM) in the assay with Staphylococcus aureus and 4 µg/mL (≈ 14 µM) with Haemophilus influenzae.
As to `CCCCC(CC(=O)NO)S(=O)(=O)C1CCCCC1` (stereo unspecified), the IC50 in assay [1] was 78000 nM; on Matrilysin, 290 nM; at Interstitial collagenase it was 54 nM; against Collagenase 3 it was 100 nM; at Neprilysin [5] it was 1650 nM; in [9] it was > 100000 nM. Besides, half-maximal inhibition in assay [10] (IC50) was put at 14 nM. For the same compound, the MIC is 8 µg/mL (≈ 27.5 µM) with Escherichia coli [4] and < 0.25 µg/mL in the assay on Moraxella catarrhalis.
`CCCCC(CC(=O)NO)S(=O)(=O)c1ccc2ccccc2c1` (stereo unspecified): the IC50 came out at 450000 nM in assay [1]; 1500 nM against Matrilysin; 70 nM at Interstitial collagenase; 9 nM against Collagenase 3; 500 nM against Neprilysin [13]; 12400 nM in assay [9]. Besides, the IC50 in [10] came out at 13 nM; at Peptide deformylase, 23 nM. Also, the MIC against Escherichia coli [4] is 8 µg/mL (≈ 23.9 µM); against Moraxella catarrhalis it was 0.5 µg/mL (≈ 1.49 µM).
